Assay results taken from the NIST ThermoML archive (doi:10.1016/j.tca.2011.08.013).

How the values were obtained:
[1] = Liquid; for viscosity: Capillary tube (Ostwald / Ubbelohde) method; for speed of sound: Linear variable-path acoustic interferometer; for mass density: Pycnometric method
[2] = xn = mol fraction of the nth substance listed; details: 101 kPa, Liquid; for viscosity: Capillary tube (Ostwald / Ubbelohde) method; for speed of sound: Linear variable-path acoustic interferometer; for mass density: Pycnometric method
[3] = mn = molality of the nth substance listed, in mol/kg; details: 101 kPa, Liquid; for viscosity: Capillary tube (Ostwald / Ubbelohde) method; for speed of sound: Linear variable-path acoustic interferometer; for mass density: Pycnometric method

C[S+](C)[O-] [dimethyl sulfoxide]
[1], 101.33 kPa
Details | mass density [kg/m3] | speed of sound [m/s] | viscosity [mPa·s]
308.15 K | 1085.9 | 1457.9 | 1.655
318.15 K | 1075.6 | 1423.4 | 1.392

C[S+](C)[O-] [dimethyl sulfoxide] + O
[2]
Details | mass density [kg/m3] | speed of sound [m/s] | viscosity [mPa·s]
303.15 K, x1 = 0.0121 | 1002 | 1534.6 | 0.9
303.15 K, x1 = 0.0255 | 1008 | 1556.6 | 0.979
303.15 K, x1 = 0.0424 | 1015.3 | 1580 | 1.089
303.15 K, x1 = 0.0583 | 1021.4 | 1602.7 | 1.224
308.15 K, x1 = 0.0121 | 1000.3 | 1541.3 | 0.805
308.15 K, x1 = 0.0255 | 1006.4 | 1561.7 | 0.888
308.15 K, x1 = 0.0424 | 1013.6 | 1583.1 | 0.988
308.15 K, x1 = 0.0583 | 1019.3 | 1603.5 | 1.102
313.15 K, x1 = 0.0121 | 998.5 | 1546.2 | 0.729
313.15 K, x1 = 0.0255 | 1004.4 | 1566 | 0.806
313.15 K, x1 = 0.0424 | 1011.4 | 1586.1 | 0.887
313.15 K, x1 = 0.0583 | 1017.6 | 1604.9 | 1.002
318.15 K, x1 = 0.0121 | 996.2 | 1552.4 | 0.667
318.15 K, x1 = 0.0255 | 1002.3 | 1569.7 | 0.735
318.15 K, x1 = 0.0424 | 1009.3 | 1587.2 | 0.808
318.15 K, x1 = 0.0583 | 1015.3 | 1603.3 | 0.903

[F-].[K+] [potassium fluoride] + O
[3]
Details | mass density [kg/m3] | speed of sound [m/s] | viscosity [mPa·s]
303.15 K, m1 = 0.05 | 998.2 | 1515.5 | 0.805
303.15 K, m1 = 0.1 | 1000.4 | 1518.9 | 0.811
303.15 K, m1 = 0.15 | 1002.6 | 1522.1 | 0.819
303.15 K, m1 = 0.2 | 1004.7 | 1525.8 | 0.827
308.15 K, m1 = 0.05 | 996.6 | 1524 | 0.726
308.15 K, m1 = 0.1 | 998.8 | 1526.9 | 0.734
308.15 K, m1 = 0.15 | 1001 | 1530.5 | 0.741
308.15 K, m1 = 0.2 | 1003.2 | 1534 | 0.745
313.15 K, m1 = 0.05 | 994.7 | 1531.4 | 0.66
313.15 K, m1 = 0.1 | 997 | 1536.1 | 0.668
313.15 K, m1 = 0.15 | 999.1 | 1538.6 | 0.672
313.15 K, m1 = 0.2 | 1001.2 | 1542.4 | 0.679
318.15 K, m1 = 0.05 | 992.7 | 1538.6 | 0.604
318.15 K, m1 = 0.1 | 994.8 | 1543.4 | 0.612
318.15 K, m1 = 0.15 | 997 | 1546.2 | 0.615
318.15 K, m1 = 0.2 | 999.2 | 1549.4 | 0.622

O [water]
[1], 101 kPa
Details | speed of sound [m/s] | viscosity [mPa·s]
303.15 K | 1512 | 0.797
308.15 K | – | 0.719
313.15 K | 1528 | 0.653
318.15 K | 1535.2 | 0.597
